Consider 6 compounds from US20090170846A1, “INHIBITORS OF THE HIV INTEGRASE ENZYME” (Pfizer Inc, priority 2005, published 2009).

SMILES strings stand for the structures. Where two headings read alike, the source gives them in different places.

Assay [1] deals with T1, Full-length wild type HIV-1 integrase (SF1) (Human immunodeficiency virus type 1 group M subtype B, UniProt P04585).
T1 construct: made in house; host or cells: E. coli BL21 (DE3)
Put plainly: Integrase strand-transfer scintillation proximity assay. To be noted: integrase strand-transfer SPA; read-out: IC50. Format: biochemical. The gist of the method:
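Strand transfer used E. coli-expressed full-length HIV-1 integrase (aa 1–289). The donor was biotinylated, preprocessed U5 LTR viral ds-DNA bound to streptavidin SPA beads, with [3H]-thymidine-labelled host ds-DNA as target. Integration was detected by scintillation proximity.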
(SPA uses beads or plates that emit light when radiolabelled molecules are held near them.)

The test system of assay [2] is RF strain of HIV-1 in CEM-SS cells. Briefly: HIV-1 cell protection assay (XTT dye reduction). The format is cell-based. In short, it runs like this:
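CEM-SS cells infected at an moi giving about 90% kill (mock-infected for toxicity) and exposed to half-log compound dilutions for six days; XTT/PMS added for 4 h, formazan read at 450 nm. EC50 as protection to 50% of uninfected control, CC50 from uninfected cells, therapeutic index as CC50/EC50.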
(Formazan colour is commonly taken as a measure of viable cells.)

Where [3] appears, read: Human immunodeficiency virus 1, 144 h, HIV-1 RF, CEM-SS cells, XTT, six days, read-out: EC50.
[4] abbreviates: Human immunodeficiency virus 1, CEM-SS, 144 h.

Turning to `CONC(=O)c1cc2c(S(=O)(=O)N3CCNC(=O)C3)cn(Cc3ccc(F)cc3F)c2cn1` [Example 39, 1-(2,4-difluorobenzyl)-N-methoxy-3-[(3-oxopiperazin-1-yl)sulfonyl]-1H-pyrrolo[2,3-c]pyridine-5-carboxamide], the IC50 in assay [1] turned out to be 299 nM. The 50% effective concentration (EC50) in assay [2] (setting [3]) came to 210 nM.
Consider `CONC(=O)c1cc2c(C(=O)NCC(F)F)cn(Cc3ccc(F)cc3)c2cn1` [Example 48, N3-(2,2-difluoroethyl)-1-(4-fluorobenzyl)-N5-methoxy-1H-pyrrolo[2,3-c]pyridine-3,5-dicarboxamide], for which, in assay [1], the IC50 was 510 nM. The same compound gave an EC50 in assay [2] (setting [4]) of 29 nM.
The corresponding values for `CN(C)C1CCN(C(=O)c2cn(Cc3ccc(F)cc3)c3cnc(C(=O)NO)cc23)C1` (stereo not drawn) [Example 26, 3-{[3-(dimethylamino)pyrrolidin-1-yl]carbonyl}-1-(4-fluorobenzyl)-N-hydroxy-1H-pyrrolo[2,3-c]pyridine-5-carboxamide] are 158 nM and 90 nM.
The corresponding values for `Cc1c(CNC(=O)c2cn(Cc3ccc(F)cc3)c3cnc(C(=O)N(C)O)cc23)cnn1C` [Example 17, N~3~-[(1,5-dimethyl-1H-pyrazol-4-yl)methyl]-1-(4-fluorobenzyl)-N~5~- hydroxy-N~5~-methyl-1H-pyrrolo[2,3-c]pyridine-3,5-dicarboxamide] are 168 nM and 110 nM.
With `O=C1CN(S(=O)(=O)c2cn(Cc3ccc(F)cc3F)c3cnc(C(=O)NO)cc23)CCN1` [Example 38, 1-(2,4-difluorobenzyl)-N-hydroxy-3-[(3-oxopiperazin-1-yl)sulfonyl]-1H-pyrrolo[2,3-c]pyridine-5-carboxamide], the half-inhibitory concentration (IC50) in assay [1] was determined as 265 nM. Also, in assay [2] (setting [3]), the EC50 was determined as 8000 nM.
With `CN(O)C(=O)c1cc2c(C(=O)NCC(F)F)cn(Cc3ccc(F)cc3)c2cn1` [Example 45, N3-(2,2-difluoroethyl)-1-(4-fluorobenzyl)-N5-hydroxy-N5-methyl-1H-pyrrolo[2,3-c]pyridine-3,5-dicarboxamide], in assay [1], the IC50 worked out at 243 nM. The same compound returned an EC50 in assay [2] (setting [4]) of 39 nM.

As usually defined, the IC50 is the concentration needed to halve the response being measured. For orientation: EC50 means the midpoint of the concentration-response curve.
